This is an account of results in US11447466B2, “Substituted indole compounds useful as inhibitors of TLR7/8/9” (BRISTOL-MYERS SQUIBB COMPANY, priority 2017, dated 2022).

pIC50: −log10 of the molar value. Where only a bound is given, the exact number is not on record here.

Assay type in all cases: cell-based
For one test, the target named is T1, human TLR9 (Homo sapiens, UniProt Q9NR96).
T1 construct: host or cells: HEK-Blue cells
T1 sequence (Q9NR96 26-1032): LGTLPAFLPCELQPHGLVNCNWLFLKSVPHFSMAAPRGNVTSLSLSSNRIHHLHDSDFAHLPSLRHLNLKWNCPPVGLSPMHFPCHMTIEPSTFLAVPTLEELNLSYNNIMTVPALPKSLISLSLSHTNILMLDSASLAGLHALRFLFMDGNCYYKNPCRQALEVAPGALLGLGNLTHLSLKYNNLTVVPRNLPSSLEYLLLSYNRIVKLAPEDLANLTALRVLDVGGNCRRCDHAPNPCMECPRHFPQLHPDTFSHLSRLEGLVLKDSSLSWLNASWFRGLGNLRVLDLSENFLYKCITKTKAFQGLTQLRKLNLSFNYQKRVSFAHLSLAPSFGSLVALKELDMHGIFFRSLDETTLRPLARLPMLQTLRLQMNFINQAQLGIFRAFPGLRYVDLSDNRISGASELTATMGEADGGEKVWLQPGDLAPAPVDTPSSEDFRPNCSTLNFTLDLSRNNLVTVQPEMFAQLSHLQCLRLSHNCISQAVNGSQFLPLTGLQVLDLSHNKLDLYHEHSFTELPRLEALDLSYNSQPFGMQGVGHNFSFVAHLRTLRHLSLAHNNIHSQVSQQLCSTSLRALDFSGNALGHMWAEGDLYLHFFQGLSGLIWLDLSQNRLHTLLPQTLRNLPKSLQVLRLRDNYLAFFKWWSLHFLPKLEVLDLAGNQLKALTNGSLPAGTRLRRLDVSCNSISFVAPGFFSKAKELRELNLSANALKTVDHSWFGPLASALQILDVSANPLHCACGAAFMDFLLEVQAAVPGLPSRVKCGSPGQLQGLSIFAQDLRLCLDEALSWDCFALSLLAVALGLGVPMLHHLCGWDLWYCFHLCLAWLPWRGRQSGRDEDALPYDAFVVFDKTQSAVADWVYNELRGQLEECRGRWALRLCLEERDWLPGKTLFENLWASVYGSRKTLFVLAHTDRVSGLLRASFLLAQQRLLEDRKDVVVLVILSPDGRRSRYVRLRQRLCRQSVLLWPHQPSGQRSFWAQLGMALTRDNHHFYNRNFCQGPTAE
Briefly: TLR9 inhibition reporter assay (HEK-Blue SEAP reporter, ODN2006 stimulation). As to conditions: HEK-Blue cells overexpressing human TLR9, SEAP reporter, ODN2006 5 nM, 22 hour incubation. Put shortly: (§1)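 Human TLR7/8/9 HEK-Blue reporter lines; dose range 0.05 nM–50 μM; 30 min RT preincubation; stimulus gardiquimod 7.5 μM / R848 15.9 μM / ODN2006 5 nM respectively; 22 h, 37 °C; SEAP detected colorimetrically.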
(In general: Reporter assays use an easily measured gene product as a stand-in for the process of interest.)

The next test addresses T2, human TLR7 (Homo sapiens, UniProt Q9NYK1).
T2 construct: host or cells: HEK-Blue cells
T2 sequence (Q9NYK1 27-1049): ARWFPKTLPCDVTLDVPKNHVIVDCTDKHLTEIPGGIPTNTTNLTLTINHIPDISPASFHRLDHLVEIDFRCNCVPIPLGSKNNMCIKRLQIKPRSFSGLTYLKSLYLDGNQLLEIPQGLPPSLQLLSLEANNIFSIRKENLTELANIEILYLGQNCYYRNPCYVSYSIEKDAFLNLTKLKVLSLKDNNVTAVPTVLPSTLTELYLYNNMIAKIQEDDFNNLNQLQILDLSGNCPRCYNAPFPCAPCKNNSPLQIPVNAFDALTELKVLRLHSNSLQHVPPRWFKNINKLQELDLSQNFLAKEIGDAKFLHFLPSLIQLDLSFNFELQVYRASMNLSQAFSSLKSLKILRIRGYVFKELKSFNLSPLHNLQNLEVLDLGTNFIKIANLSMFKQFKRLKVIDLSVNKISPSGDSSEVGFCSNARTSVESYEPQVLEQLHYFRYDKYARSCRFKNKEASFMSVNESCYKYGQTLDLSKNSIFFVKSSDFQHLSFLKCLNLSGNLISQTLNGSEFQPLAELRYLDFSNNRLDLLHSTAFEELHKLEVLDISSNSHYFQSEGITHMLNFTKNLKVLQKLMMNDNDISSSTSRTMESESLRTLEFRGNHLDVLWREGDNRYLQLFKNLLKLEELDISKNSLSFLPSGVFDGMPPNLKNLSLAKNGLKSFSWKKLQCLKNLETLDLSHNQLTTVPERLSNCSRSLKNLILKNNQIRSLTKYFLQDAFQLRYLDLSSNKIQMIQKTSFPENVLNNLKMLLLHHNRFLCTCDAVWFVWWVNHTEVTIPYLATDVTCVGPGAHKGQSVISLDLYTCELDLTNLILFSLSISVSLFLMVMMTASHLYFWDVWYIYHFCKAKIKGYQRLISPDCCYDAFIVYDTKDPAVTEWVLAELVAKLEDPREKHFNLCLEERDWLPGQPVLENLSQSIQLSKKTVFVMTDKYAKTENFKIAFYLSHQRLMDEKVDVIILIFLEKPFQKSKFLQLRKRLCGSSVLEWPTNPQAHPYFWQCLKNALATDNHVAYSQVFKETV
Briefly: TLR7 inhibition reporter assay (HEK-Blue SEAP reporter, gardiquimod stimulation). As to conditions: HEK-Blue cells overexpressing human TLR7, SEAP reporter, gardiquimod 7.5 μM, 22 hour incubation. Put shortly:
as §1

Another test concerns the target T3, human TLR8 (Homo sapiens, UniProt Q9NR97).
T3 construct: host or cells: HEK-Blue cells
T3 sequence (Q9NR97 27-1041): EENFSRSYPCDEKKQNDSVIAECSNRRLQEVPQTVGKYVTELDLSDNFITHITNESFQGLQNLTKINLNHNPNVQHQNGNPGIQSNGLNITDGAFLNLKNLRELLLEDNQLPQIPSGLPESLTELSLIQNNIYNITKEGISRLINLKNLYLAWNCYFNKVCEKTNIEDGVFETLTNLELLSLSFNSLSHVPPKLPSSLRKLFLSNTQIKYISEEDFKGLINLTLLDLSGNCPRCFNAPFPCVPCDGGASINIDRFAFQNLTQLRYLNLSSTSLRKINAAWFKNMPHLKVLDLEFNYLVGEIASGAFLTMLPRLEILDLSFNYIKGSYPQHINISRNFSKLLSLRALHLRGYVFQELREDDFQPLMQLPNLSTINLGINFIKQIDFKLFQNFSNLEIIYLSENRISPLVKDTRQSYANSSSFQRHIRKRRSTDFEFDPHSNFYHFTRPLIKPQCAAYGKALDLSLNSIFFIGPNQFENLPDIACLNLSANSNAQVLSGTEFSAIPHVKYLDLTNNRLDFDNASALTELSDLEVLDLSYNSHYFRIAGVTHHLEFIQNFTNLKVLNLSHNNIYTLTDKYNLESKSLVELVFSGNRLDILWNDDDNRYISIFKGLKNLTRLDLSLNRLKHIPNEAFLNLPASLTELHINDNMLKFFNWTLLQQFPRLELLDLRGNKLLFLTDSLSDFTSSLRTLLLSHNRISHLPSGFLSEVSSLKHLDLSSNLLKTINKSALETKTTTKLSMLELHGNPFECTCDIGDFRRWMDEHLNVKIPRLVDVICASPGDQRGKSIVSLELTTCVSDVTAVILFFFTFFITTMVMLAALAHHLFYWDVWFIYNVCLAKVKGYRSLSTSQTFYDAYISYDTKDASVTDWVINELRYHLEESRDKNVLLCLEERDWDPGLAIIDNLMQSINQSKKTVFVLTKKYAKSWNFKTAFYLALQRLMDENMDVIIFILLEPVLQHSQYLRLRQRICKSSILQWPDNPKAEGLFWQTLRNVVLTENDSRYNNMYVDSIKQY
Briefly: TLR8 inhibition reporter assay (HEK-Blue SEAP reporter, R848 stimulation). As to conditions: HEK-Blue cells overexpressing human TLR8, SEAP reporter, R848 15.9 μM, 22 hour incubation. In short, it runs like this:
as §1

For the molecule `CC(C)c1c(-c2ccc(=O)n(C)c2)[nH]c2ccc(C3CCNCC3)cc12` [Example 1, 5-(3-isopropyl-5-(piperidin-4-yl)-1H-indol-2-yl)-1-methylpyridin-2(1H)-one], the negative logarithm of the IC50 (pIC50) (commonly −log10 of the IC50, conventionally taken in molar units) on human TLR9 is 6.21; against human TLR7, 7.56; at human TLR8, 7.81.
The matching figures for `CC(C)c1c(-c2ccc(=O)n(C)c2)[nH]c2ccc(C3CCN(CC(=O)N(C)C)CC3)cc12` [Example 114, 2-(4-(3-isopropyl-2-(1-methyl-6-oxo-1,6-dihydropyridin-3-yl)-1H-indol-5-yl)piperidin-1-yl)-N,N-dimethylacetamide]: 4.98, 7.37 and 7.36.
The corresponding values for `CCCN1CCC(c2ccc3[nH]c(-c4cc(-c5ccc(NC(C)=O)nc5)c(=O)n(C)c4)c(C(C)C)c3c2)CC1` [Example 335, N-(5′-(3-isopropyl-5-(1-propylpiperidin-4-yl)-1H-indol-2-yl)-1′-methyl-2′-oxo-1′,2′-dihydro-[3,3′-bipyridin]-6-yl)acetamide] are 6.28, 8.62 and 8.23.
The corresponding values for `CC(=O)N1CCC(c2ccc3[nH]c(-c4cn(C)c(=O)c(Cl)c4C)c(C(C)C)c3c2)CC1` [Example 241, 5-(5-(1-acetylpiperidin-4-yl)-3-isopropyl-1H-indol-2-yl)-3-chloro-1,4-dimethylpyridin-2(1H)-one] are 5.31, 8.08 and 8.32.
For `Cc1cc(-c2[nH]c3ccc(C4CCNCC4)cc3c2C(C)C)cn(CC(C)(C)O)c1=O` [Example 43, 1-(2-hydroxy-2-methylpropyl)-5-(3-isopropyl-5-(piperidin-4-yl)-1H-indol-2-yl)-3-methylpyridin-2(1H)-one], the pIC50 on human TLR9 was 5.81; against human TLR7 it was 6.96; against human TLR8 it was 6.81.
Take `COCCn1cc(-c2[nH]c3ccc(C4CCNCC4)cc3c2C(C)C)cc(C)c1=O` [Example 39, 5-(3-isopropyl-5-(piperidin-4-yl)-1H-indol-2-yl)-1-(2-methoxyethyl)-3-methylpyridin-2(1H)-one]: the pIC50 at human TLR9 was 5.50; on human TLR7 it was 8.10; against human TLR8 it was 8.10.
`Cc1cc(-c2[nH]c3ccc(C4CCN(C(C)(C)C(=O)O)CC4)cc3c2C(C)C)cn(C)c1=O` [Example 148, 2-(4-(2-(1,5-dimethyl-6-oxo-1,6-dihydropyridin-3-yl)-3-isopropyl-1H-indol-5-yl)piperidin-1-yl)-2-methylpropanoic acid]: the figures for the pIC50 on human TLR9, at human TLR7 and on human TLR8 were at most 4.30, 6.71 and 6.44, respectively.
The matching figures for `Cc1cc(-c2[nH]c3ccc(C4CCN(C(=O)C[C@H]5CCCN5)CC4)cc3c2C(C)C)cn(C)c1=O` [Example 306, (R)-5-(3-isopropyl-5-(1-(2-(pyrrolidin-2-yl)acetyl)piperidin-4-yl)-1H-indol-2-yl)-1,3-dimethylpyridin-2(1H)-one]: 6.26, 7.78 and 7.57.
`Cc1nc(-c2[nH]c3ccc(C4CCN(CC(C)(C)O)CC4)cc3c2C(C)C)cn(C)c1=O` [Example 312, 5-(5-(1-(2-hydroxy-2-methylpropyl)piperidin-4-yl)-3-isopropyl-1H-indol-2-yl)-1,3-dimethylpyrazin-2(1H)-one]: the results for the pIC50 against human TLR9, against human TLR7 and on human TLR8 were 5.50, 7.45 and 7.65, respectively.
The matching figures for `COc1cc(-c2[nH]c3ccc(C4CCN(C(=O)CN(C)C)CC4)cc3c2C(C)C)cn(C)c1=O` [Example 286, 5-(5-(1-(dimethylglycyl)piperidin-4-yl)-3-isopropyl-1H-indol-2-yl)-3-methoxy-1-methylpyridin-2(1H)-one]: 6.54, 8.30 and 8.25.
The corresponding values for `Cc1cc(-c2[nH]c3ccc(C4CCN([C@@H]5CCNC5=O)CC4)cc3c2C(C)C)cn(C)c1=O` [Example 123, (R)-5-(3-isopropyl-5-(1-(2-oxopyrrolidin-3-yl)piperidin-4-yl)-1H-indol-2-yl)-1,3-dimethylpyridin-2(1H)-one] are 4.62, 8.15 and 8.10.
As to `CCn1cc(-c2[nH]c3ccc(C4CCN(C(=O)CN(C)C)CC4)cc3c2C(C)C)cc(C)c1=O` [Example 282, 5-(5-(1-(dimethylglycyl)piperidin-4-yl)-3-isopropyl-1H-indol-2-yl)-1-ethyl-3-methylpyridin-2(1H)-one], the pIC50 on human TLR9 is 5.20; against human TLR7, 8.28; on human TLR8 it was 8.15.
The corresponding values for `Cc1cc(-c2[nH]c3ccc(C4CCN(C5CCC(C(F)(F)F)CC5)CC4)cc3c2C(C)C)cn(C)c1=O` (stereo not drawn) [Example 230, 5-(3-isopropyl-5-(1-(4-(trifluoromethyl)cyclohexyl)piperidin-4-yl)-1H-indol-2-yl)-1,3-dimethylpyridin-2(1H)-one] are 5.26, 7.95 and 7.64.
